Results reported in patent publication US20210051963A1, “METHODS AND COMPOSITIONS TO IMPROVE PLANT HEALTH AND/OR PLANT PERFORMANCE” (PLANTRESPONSE BIOTECH, S.L., priority 2017, published 2021).

Columns and labels:
[1] = tested on: Sclerotinia sclerotiorum strain CH109; experiment: White mold disease index in tomato plants treated with PRBT, 6-HP-2CA or 6-OXO-2CA; type: in vivo; conditions: for disease index vs untreated inoculated tomato plants: PRBT 0.054 g L-1, 6-HP-2CA 0.1 g/l, 6-OXO-2CA 0.1 g/l, 10 and 14 dpi; for Disease Control (%) / Disease index (10 dpi) / Disease index (15 dpi): inoculated tomato var. Money Maker, PRBT 0.054 g/L, 6-HP-2CA or 6-OXO-2CA 0.1 g/L, 25 ml/plant; for Disease index (10 dpi) / Disease index (15 dpi): score 0-5
Procedure: Tomato plants var. Money Maker were sown on Dec. 13, 2016, distributed in random blocks of 9 plants with 4 replicates (36 plants per treatment) and grown in a standard greenhouse. Treated plants were sprayed on Mar. 6, 2017 with 25 ml/plant at 3 ml/1 (0.054 g L^−1) of PRBT (with surfactant 2:1, v/w, antifoam and biocide) or with 25 ml (0.1 g L^−1) of 6-hydroxypiperidine-2-carboxylic acid (6-HP-2CA), or with 25 ml (0.1 g 1-1) of 6-oxopiperidine-2-carboxylic acid (6-OXO-2CA).
Two days later plants were inoculated with 25 ml/plant of a foliar spray of blended Sclerotinia sclerotiorum strain CH109 mycelium that had been grown to optical density at 600 nm of 0.8. Plants were kept at 100% relative humidity for seven days and then humidity was lowered to 80% for the rest of the experiment. Plants were then evaluated at 10 and 14 days post inoculation (dpi) according to a disease severity index score were 0 corresponds to no symptoms and 5 to a dead plant. No statistically significant differences among treatments with the same letter (LSD method, p=0.05)

[2] = tested on: Sclerotinia sclerotiorum strain CH109; experiment: White mold disease index in pepper plants treated with PRBT or 6-HP-2CA; type: in vivo; conditions: for Disease index 4 dpi / Disease index 6 dpi: inoculated pepper var. Murano, 10 ml/plant, score 0-4
Procedure: Pepper plants var. Murano were sown on Oct. 20, 2016 and distributed in random blocks of 3 plants with 4 replicates (12 plants per treatment) and grown in a standard greenhouse. PRBT treated plants were sprayed on Nov. 23, 2016 with (0.038 g L^−1) PRBT at 10 ml/plant or with (0.01 g L^−1) 6-hydroxypiperidine-2-carboxylic acid (6-HP-2CA) or with (0.1 g L^−1) 6-HP-2CA or with (0.01 g L^−1) 6-HP-2CA formulated with an adjuvant or with (0.1 g L^−1) 6-HP-2CA (0.01 g L^−1) formulated with an adjuvant at 10 ml/plant. Two days later plants were inoculated with 10 ml/plant of a foliar spray of blended Sclerotinia sclerotiorum strain CH109 mycelium that had been grown to optical density at 600 nm of 1.7. Plants were kept at 100% relative humidity for four days and then humidity was lowered to 80% for the rest of the experiment. Plants were then evaluated 4, and 6 days post inoculation (dpi) according to a disease severity index score were 0 corresponds to no symptoms and 4 to a dead plant. No statistically significant differences among treatments with the same letter (LSD method, p=0.05)

Row | SMILES | disease index vs untreated inoculated tomato plants [1] | Disease Control (%) [1] | Disease index (10 dpi) [1] | Disease index (15 dpi) [1] | disease index vs untreated inoculated pepper plants ([2]; high (0.1 g/L) concentration) | Disease index 4 dpi ([2]; 0.01 g/L) | Disease index 6 dpi ([2]; 0.01 g/L) | Disease index 4 dpi ([2]; 0.1 g/L) | Disease index 6 dpi ([2]; 0.1 g/L)
1 | O=C1CCC[C@H](C(=O)O)N1 (stereo in doubt) [6-OXO-2CA, 6-oxopiperidine-2-carboxylic acid] | significantly lower | 10 c % | 2.3 b | 2.3 b | – | – | – | – | –
2 | O=C(O)C1CCCC(O)N1 (stereo not shown) [6-HP-2CA, 6-hydroxypiperidine-2-carboxylic acid] | significantly lower | 11 c % | 2.2 b | 2.2 b | significantly lower | 0.9 b | 2.3 b | 0.2 a | 0.5 a
